# Measurements taken from the supplement of paper PMC11451515.
# Assays:
# Test in all cases: AUC of viability dose-response curve (% viability x log10 dose units); higher = less sensitive
# Details in all cases: 48 h
# P12-Ichikawa = tested on: P12-Ichikawa
# In short: (§1)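 Leukemia cells adapted to each medium were seeded at 500 or 1000 cells/well in 1536-well plates and dosed with library compounds in DMSO at 11 threefold doses from 47 μM to 0.79 nM for 48 h at 37°C. CellTiter-Glo One luminescence was normalised per plate to DMSO and cell-free wells, then fitted with a four-parameter log-logistic model over log10 doses. Area under the curve was taken from this fit by the trapezoidal rule, with curves above full viability scaled and curves failing quality control removed.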
# SEM cells = tested on: SEM cells
# In short: as §1
# NOMO1 = tested on: NOMO1
# In short: as §1
# [1] = RPMI 5 mM glucose + 10% dialyzed FBS
Compound,AUC of viability dose-response curve (P12-Ichikawa; HPLM + 10% dialyzed FBS),AUC of viability dose-response curve (P12-Ichikawa; RPMI 5 mM glucose + 10% FBS),AUC of viability dose-response curve (P12-Ichikawa; [1]),AUC of viability dose-response curve (SEM cells; HPLM + 10% dialyzed FBS),AUC of viability dose-response curve (SEM cells; RPMI 5 mM glucose + 10% FBS),AUC of viability dose-response curve (SEM cells; [1]),AUC of viability dose-response curve (NOMO1; HPLM + 10% dialyzed FBS),AUC of viability dose-response curve (NOMO1; RPMI 5 mM glucose + 10% FBS),AUC of viability dose-response curve (NOMO1; [1])
CCCCN1CCC(CNC(=O)c2c3n(c4ccccc24)CCCO3)CC1,461,459,465,431,474,462,474,467,470
Cc1nc(-c2ccc(-c3ccc(C(=O)N4CCc5cc6c(cc54)C4(CCN(C)CC4)CO6)cc3)c(C)c2)no1,464,460,447,420,467,439,454,477,449
C=C1CCC2[C@](C)(CO)C(O)CC[C@]2(C)C1C/C=C1/C(=O)OCC1O (stereo partly specified),454,457,448,439,383,420,395,459,453
CC(O)(C[S+](=O)([O-])c1ccc(F)cc1)C(=O)Nc1ccc(C#N)c(C(F)(F)F)c1 (stereo unspecified),450,430,413,428,426,424,439,422,436
C[C@H](NC(=O)[C@@H](O)c1cc(F)cc(F)c1)C(=O)N[C@@H]1C(=O)N(C)c2ccccc2-c2ccccc21,432,441,437,440,453,417,402,450,432
Nc1ncnc2nc(-c3ccc(N4CCOCC4)nc3)cc(-c3cccc(Br)c3)c12,460,439,467,470,471,470,463,475,460
COc1cc(C[C@@H](CO)[C@H](CO)Cc2ccc(O)c(OC)c2)ccc1O,464,457,439,452,444,455,467,456,476
C#CCC(Cc1cnc2nc(N)nc(N)c2n1)c1ccc(C(=O)N[C@@H](CCC(=O)O)C(=O)O)cc1 (stereo partly specified),227,250,228,274,358,232,307,380,265
COc1cccc(N(C)C(=S)Oc2ccc3c(c2)CCCC3)n1,469,470,455,389,445,452,465,441,444
